# Measured values as given in PubChem BioAssay AID1918942 (Molecular Pharmacology Branch, DTP, NCI, 2023).
# pIC50: −log10 of the molar value.
# System: 743489-274-T-PDC complex spheroid viability
# Experiment: Anticancer human tumor 743489-274-T-PDC patient-derived renal cell carcinoma cell line growth inhibition
# Conditions: for pIC50: curve of first compound; for viability, T/C: stronger effect = lower value
# Description: Multicellular complex tumor spheroid response to LSD1 Inhibitor Iadademstat in combination with a variety of drugs and investigational agents in selected tumor cell lines
# The current study was undertaken to assess response to LSD1 inhibitors in combination with standard-of-care drugs and investigational agents in solid tumor complex spheroid models as well as in the K-562 leukemia. Complex spheroids include a stromal component modeled by human endothelial cells (HUVEC) and fibroblasts modeled by human mesenchymal stem cells (MSCs). The concentration ranges selected for each drug and investigational agent were based upon clinically achievable concentrations if the clinical Cmax of the agent was known.
# Compounds. The drugs and investigational agents used in this study are listed on Table 1. All of the agents used, including staurosporine (NSC755774) and gemcitabine (NSC613327), were obtained from the Developmental Therapeutics Program, NCI. FDA-approved anticancer drugs are available from the NCI at http://dtp.nci.nih.gov/branches/dscb/oncology_drugset_explanation.html. Drugs and investigational agents were >95% pure by proton nuclear magnetic resonance (NMR) and liquid chromatography/mass spectrometry (LC/MS). Stock solutions were prepared at 400x in DMSO, stored at -70 degrees C, and diluted in fresh medium prior to their use. The final concentration of DMSO in cell culture wells never exceeded 0.25% (v/v). The FDA-approved anticancer drug set is available from the Developmental Therapeutics Program at https://dtp.cancer.gov/organization/dscb/obtaining/available_plates.htm. All drugs and investigational agents were tested over a range starting from a high concentration at or near the clinical Cmax and decreasing in half-log increments. If the clinical Cmax for an agent had not been determined, the highest concentration tested was 10 microM.
# Cell Lines. The patient-derived cancer cell (PDC) lines: 292921-168-R-J2-PDC, K24384-001-R-PDC, and 521955-158-R2-J5-PDC pancreatic carcinomas, 556581-035-R-J1 ovarian carcinoma, 324938-238-R-J1-PDC, 855422-203-R-J1-PDC and 883617-216-R-J1-PDC urothelial bladder carcinomas, 743489-274-T-PDC renal cell carcinoma, 138582-R-J1 Merkel cell tumor, K60290-347-R-J1 and K57222-313-R-J1-PDC glioblastomas, 653999-131-R-J2-PDC, LG0703-F948-PDC, and 349418-098-R-PDC non-small cell lung carcinomas, 885512-296-R-J2-PDC, 171881-019-R-J1-PDC breast carcinomas and 186277-243-T-J2-PDC and 233499-124-R-J2-PDC colon carcinomas were obtained from the NCI Patient-Derived Models Repository (PDMR, https://pdmr.cancer.gov). The established cell lines NCI/ADR-RES (RRID:CVCL_14520 and OVCAR-5 (RRID:CVCL_1628) ovarian carcinomas, 786-O (RRID:CVCL_1051) and A498 (RRID:CVCL_A498) renal cell carcinoma, NCI-H211 (ATCC, cat. CRL-5824; RRID:CVCL_1529), NCI-H196 (ATCC, cat. CRL-5823, RRID:CVCL_1509), SW 1271 (ATCC, cat. CRL-2177, RRID:CVCL_1716) and NCI-H1876 (ATCC, cat. CRL-5902, RRID:CVCL_1503) small cell lung carcinomas, MDA-MB-231 (RRID:CVCL_0062) and MDA-MB-468 (RRID:CVCL_0419)breast carcinomas (10-12). Pooled donor human umbilical vein endothelial cells (HUVEC, Lonza, cat. CC-2519) and human mesenchymal stem cells (hMSC, Lonza, cat. PT-2501) were purchased from Lonza (Walkersville, MD).
# Cell Culture. All cells were maintained in an incubator at 37 degrees C and 5% CO2 with 95% humidity. The PDC lines were cultured according to standard operating procedures established by the NCI PDMR (https://pdmr.cancer.gov). Briefly all PDCs were thawed and cultured in Matrigel-coated flasks prepared with a working solution of 1X Ham's F-12 nutrient mix, without supplementation (Invitrogen, Waltham, MA, cat. 11765054), 100 U/mL penicillin-streptomycin (Invitrogen, cat. 15140122), and 2.5% Matrigel (Corning Inc., Corning, NY, cat. 354248) for the first three passages. […]
# 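Note: spheroids exposed to compounds for 7 days before readout.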
# 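Throughout, for viability, T/C: 100% = DMSO vehicle control wells.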
structure (smiles),measurement,setting,value
CC[C@@]1(O)C(=O)OCc2c1cc1n(c2=O)Cc2cc3c(CN(C)C)c(O)ccc3nc2-1 + NC1CC1c1ccc(-c2cccc(O)c2)cc1,pIC50,second compound 0.1 µM,< 7.00
same,pIC50,second compound 0.316 µM,< 7.00
same,pIC50,second compound 1 µM,< 7.00
same,pIC50,second compound 3.16 µM,7.23
same,pIC50,second compound 10 µM,< 7.00
same,"viability, T/C","second compound 0.1 µM, first compound 0.000316 µM",98.9%
same,"viability, T/C","second compound 0.1 µM, first compound 0.001 µM",95.7%
same,"viability, T/C","second compound 0.1 µM, first compound 0.00316 µM",104%
same,"viability, T/C","second compound 0.1 µM, first compound 0.01 µM",97.8%
same,"viability, T/C","second compound 0.1 µM, first compound 0.0316 µM",66.4%
same,"viability, T/C","second compound 0.1 µM, first compound 0.1 µM",55.7%
same,"viability, T/C","second compound 0.316 µM, first compound 0.000316 µM",103%
same,"viability, T/C","second compound 0.316 µM, first compound 0.001 µM",99.6%
same,"viability, T/C","second compound 0.316 µM, first compound 0.00316 µM",89.7%
same,"viability, T/C","second compound 0.316 µM, first compound 0.01 µM",74.3%
same,"viability, T/C","second compound 0.316 µM, first compound 0.0316 µM",67.9%
same,"viability, T/C","second compound 0.316 µM, first compound 0.1 µM",53.9%
same,"viability, T/C","second compound 1 µM, first compound 0.000316 µM",97.7%
same,"viability, T/C","second compound 1 µM, first compound 0.001 µM",100%
same,"viability, T/C","second compound 1 µM, first compound 0.00316 µM",80%
same,"viability, T/C","second compound 1 µM, first compound 0.01 µM",76.3%
same,"viability, T/C","second compound 1 µM, first compound 0.0316 µM",68.5%
same,"viability, T/C","second compound 1 µM, first compound 0.1 µM",55.3%
same,"viability, T/C","second compound 3.16 µM, first compound 0.000316 µM",101%
same,"viability, T/C","second compound 3.16 µM, first compound 0.001 µM",86.7%
same,"viability, T/C","second compound 3.16 µM, first compound 0.00316 µM",78.3%
same,"viability, T/C","second compound 3.16 µM, first compound 0.01 µM",69.9%
same,"viability, T/C","second compound 3.16 µM, first compound 0.0316 µM",53.8%
same,"viability, T/C","second compound 3.16 µM, first compound 0.1 µM",45%
same,"viability, T/C","second compound 10 µM, first compound 0.000316 µM",120%
same,"viability, T/C","second compound 10 µM, first compound 0.001 µM",93%
same,"viability, T/C","second compound 10 µM, first compound 0.00316 µM",90.6%
same,"viability, T/C","second compound 10 µM, first compound 0.01 µM",70.5%
same,"viability, T/C","second compound 10 µM, first compound 0.0316 µM",77.6%
same,"viability, T/C","second compound 10 µM, first compound 0.1 µM",50.3%
COc1cc(C2c3cc4c(cc3C(OC3OC5COC(C)OC5C(O)C3O)C3COC(=O)C23)OCO4)cc(OC)c1O (stereo not given) + NC1CC1c1ccc(-c2cccc(O)c2)cc1,pIC50,second compound 0.1 µM,< 5.52
same,pIC50,second compound 0.316 µM,< 5.52
same,pIC50,second compound 1 µM,< 5.52
same,pIC50,second compound 3.16 µM,< 5.52
same,pIC50,second compound 10 µM,< 5.52
same,"viability, T/C","second compound 0.1 µM, first compound 0.00949 µM",107%
same,"viability, T/C","second compound 0.1 µM, first compound 0.03 µM",91.7%
same,"viability, T/C","second compound 0.1 µM, first compound 0.0949 µM",98%
same,"viability, T/C","second compound 0.1 µM, first compound 0.3 µM",88.7%
same,"viability, T/C","second compound 0.1 µM, first compound 0.949 µM",77.6%
same,"viability, T/C","second compound 0.1 µM, first compound 3 µM",76.9%
same,"viability, T/C","second compound 0.316 µM, first compound 0.00949 µM",103%
same,"viability, T/C","second compound 0.316 µM, first compound 0.03 µM",99.5%
same,"viability, T/C","second compound 0.316 µM, first compound 0.0949 µM",91.9%
same,"viability, T/C","second compound 0.316 µM, first compound 0.3 µM",76.7%
same,"viability, T/C","second compound 0.316 µM, first compound 0.949 µM",74.6%
same,"viability, T/C","second compound 0.316 µM, first compound 3 µM",79.7%
same,"viability, T/C","second compound 1 µM, first compound 0.00949 µM",92.8%
same,"viability, T/C","second compound 1 µM, first compound 0.03 µM",104%
same,"viability, T/C","second compound 1 µM, first compound 0.0949 µM",91.5%
same,"viability, T/C","second compound 1 µM, first compound 0.3 µM",92.2%
same,"viability, T/C","second compound 1 µM, first compound 0.949 µM",85.8%
same,"viability, T/C","second compound 1 µM, first compound 3 µM",76.5%
same,"viability, T/C","second compound 3.16 µM, first compound 0.00949 µM",87.9%
same,"viability, T/C","second compound 3.16 µM, first compound 0.03 µM",95.2%
same,"viability, T/C","second compound 3.16 µM, first compound 0.0949 µM",87.6%
same,"viability, T/C","second compound 3.16 µM, first compound 0.3 µM",87.5%
same,"viability, T/C","second compound 3.16 µM, first compound 0.949 µM",78.6%
same,"viability, T/C","second compound 3.16 µM, first compound 3 µM",79.3%
same,"viability, T/C","second compound 10 µM, first compound 0.00949 µM",97.2%
same,"viability, T/C","second compound 10 µM, first compound 0.03 µM",89.9%
same,"viability, T/C","second compound 10 µM, first compound 0.0949 µM",97%
same,"viability, T/C","second compound 10 µM, first compound 0.3 µM",83.9%
same,"viability, T/C","second compound 10 µM, first compound 0.949 µM",80.7%
same,"viability, T/C","second compound 10 µM, first compound 3 µM",70.4%
